From PubChem BioAssay AID2060483 (Molecular Pharmacology Branch, DTP, NCI, 2025)

System: K24384-001-R-PDC complex spheroids, viability
Assay: Anticancer human tumor K24384-001-R-PDC patient-derived pancreatic adenocarcinoma cell line growth inhibition [GQUAD]
Conditions: for IC50: curve of first compound; for viability, T/C: stronger effect = lower value
Description: DNA G-quadruplex Stabilizer Agents in Combinations in Complex Spheroids
A high-throughput screen of multi-cell type tumor spheroids was designed to identify active combinations of DNA G-quadruplex stabilizer agents and targeted small molecules. Complex spheroids include a stromal component modeled by human endothelial cells (HUVEC) and fibroblasts modeled by human mesenchymal stem cells (MSCs). The concentration ranges selected for each drug and investigational agent were based upon clinically achievable concentrations if the clinical Cmax of the agent was known.
Compounds. The drugs and investigational agents: pidnarulex (CX-5461; NSC782164), APTO-253 (NSC789042), BRACO-19 (NSC847499), peposertib (NSC802822), ceralasertib (NSC780249), elimusertib (NSC800525), camonsertib (NSC841442), AZD-1390 (NSC803789), olaparib (NSC753686), talazoparib (NSC767125), ART-558 (NSC835418), sotorasib (NSC818433), MRTX-1133 (NSC836407), SN-38 (NSC673596), topotecan (NSC609699), etoposide (NSC141540), doxorubicin (NSC123127), gemcitabine (NSC613327), 5-fluorouracil (NSC19893), paclitaxel (NSC125973), vemurafenib (NSC761431), panobinostat (NSC761190), R-306465 (JNJ-16241199; NSC773264), adavosertib (NSC754352), TP-3654 (NSC805149), carboplatin (NSC241240), KSQ-4279 (NSC840948), and staurosporine (NSC755774) were obtained from the National Cancer Institute (NCI) Developmental Therapeutics Program Chemical Repository (34). The FDA-approved anticancer drug set is available from the NCI Developmental Therapeutics Program. […] The stock solutions were prepared in dimethyl sulfoxide (DMSO, Sigma-Aldrich, St. Louis, MO, cat. D2650) at 800-fold the tested concentration and stored at -70 degrees C prior to their use. All drugs and investigational agents were tested over a range starting from a high concentration at or near the clinical Cmax and decreasing in half-log increments. If the clinical Cmax for an agent had not been determined, the highest concentration tested was 10 microM.
2.3 Cell Culture. All cells were maintained in an incubator at 37 degrees C and 5% CO2 with 95% humidity. The PDC lines were cultured according to standard operating procedures established by the NCI PDMR. All PDCs were thawed and cultured in Matrigel-coated flasks prepared with a working solution of 1X Ham's F-12 nutrient mix, without supplementation (Invitrogen, cat. 11765054), 100 U/mL penicillin-streptomycin (Invitrogen, cat. 15140122), and 2.5% Matrigel (Corning Inc., cat. 354248) for the first three passages. The 857933-349-R-J2-PDC line was cultured in 6C/Colon 1B media, which includes advanced DMEM/F-12 (Thermo Fisher Scientific, cat. 12634028), 10 mM HEPES (Thermo Fisher Scientific, cat. 15630080), 1X GlutaMAX supplement (Thermo Fisher Scientific, cat. 35050061), 0.1 mg/mL primocin (InvivoGen, cat. ant-pm-2), 10% defined fetal bovine serum, heat inactivated (HyClone Laboratories Inc., cat. SH30070.03HI), 50% L-WRN conditioned media (ATCC, cat. CRL-3276), 1.25 mM N-Acetyl-L-cysteine (Sigma-Aldrich, cat. A9165), 10 mM nicotinamide (Sigma-Aldrich, cat. N0636), 1X B-27 supplement (Thermo Fisher Scientific, cat. 17504044), 1X N-2 supplement (Thermo Fisher Scientific, cat. 17502048), 10 microM Y-27632 dihydrochloride (Tocris Bioscience, cat. 1254), and 50 ng/mL human EGF recombinant protein (Thermo Fisher Scientific, cat. PHG0311). The 485176-168-R4-J1-PDC line was cultured in Panc media, which includes all 6C/Colon 1B media components plus 100 ng/mL human FGF-10 (Thermo Fisher Scientific, cat. 100-26), 500 nM SB-431542 (Selleckchem, cat. S1067), and gastrin (Tocris, cat. 3006).
[…]

[1] = second compound 0.0316 µM, first compound 0.0316 µM
[2] = second compound 0.0316 µM, first compound 0.316 µM
[3] = second compound 0.1 µM, first compound 0.0316 µM
[4] = second compound 0.1 µM, first compound 0.316 µM
[5] = second compound 0.316 µM, first compound 0.0316 µM
[6] = second compound 0.316 µM, first compound 0.316 µM
[7] = second compound 1 µM, first compound 0.0316 µM
[8] = second compound 1 µM, first compound 0.316 µM
[9] = second compound 3.16 µM, first compound 0.0316 µM
[10] = second compound 3.16 µM, first compound 0.316 µM
[11] = second compound 10 µM, first compound 0.0316 µM
[12] = second compound 10 µM, first compound 0.316 µM
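Also: spheroids exposed to compounds for seven days.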

Structure (SMILES): Cn1ncnc1[C@H]1c2n[nH]c(=O)c3cc(F)cc(c23)N[C@@H]1c1ccc(F)cc1 + CN(C)c1ccc(Nc2c3ccc(NC(=O)CCN4CCCC4)cc3nc3cc(NC(=O)CCN4CCCC4)ccc23)cc1
- IC50 (second compound 0.0316 µM): > 316 nM
- IC50 (second compound 0.1 µM): > 316 nM
- IC50 (second compound 0.316 µM): > 316 nM
- IC50 (second compound 1 µM): > 316 nM
- IC50 (second compound 3.16 µM): > 316 nM
- IC50 (second compound 10 µM): > 316 nM
- viability, T/C (second compound 0.0316 µM, first compound 0.000999 µM): 101%
- viability, T/C (second compound 0.0316 µM, first compound 0.00316 µM): 82.2%
- viability, T/C (second compound 0.0316 µM, first compound 0.00999 µM): 108%
- viability, T/C [1]: 81.4%
- viability, T/C (second compound 0.0316 µM, first compound 0.0999 µM): 80.9%
- viability, T/C [2]: 86.1%
- viability, T/C (second compound 0.1 µM, first compound 0.000999 µM): 82.9%
- viability, T/C (second compound 0.1 µM, first compound 0.00316 µM): 125%
- viability, T/C (second compound 0.1 µM, first compound 0.00999 µM): 92.2%
- viability, T/C [3]: 81.2%
- viability, T/C (second compound 0.1 µM, first compound 0.0999 µM): 107%
- viability, T/C [4]: 93%
- viability, T/C (second compound 0.316 µM, first compound 0.000999 µM): 85.1%
- viability, T/C (second compound 0.316 µM, first compound 0.00316 µM): 89.5%
- viability, T/C (second compound 0.316 µM, first compound 0.00999 µM): 105%
- viability, T/C [5]: 70%
- viability, T/C (second compound 0.316 µM, first compound 0.0999 µM): 79.7%
- viability, T/C [6]: 77.3%
- viability, T/C (second compound 1 µM, first compound 0.000999 µM): 90.4%
- viability, T/C (second compound 1 µM, first compound 0.00316 µM): 91.2%
- viability, T/C (second compound 1 µM, first compound 0.00999 µM): 88%
- viability, T/C [7]: 87.1%
- viability, T/C (second compound 1 µM, first compound 0.0999 µM): 100%
- viability, T/C [8]: 69.4%
- viability, T/C (second compound 3.16 µM, first compound 0.000999 µM): 101%
- viability, T/C (second compound 3.16 µM, first compound 0.00316 µM): 85.7%
- viability, T/C (second compound 3.16 µM, first compound 0.00999 µM): 77.8%
- viability, T/C [9]: 92.3%
- viability, T/C (second compound 3.16 µM, first compound 0.0999 µM): 91.7%
- viability, T/C [10]: 65.5%
- viability, T/C (second compound 10 µM, first compound 0.000999 µM): 88.2%
- viability, T/C (second compound 10 µM, first compound 0.00316 µM): 75.1%
- viability, T/C (second compound 10 µM, first compound 0.00999 µM): 82.9%
- viability, T/C [11]: 118%
- viability, T/C (second compound 10 µM, first compound 0.0999 µM): 110%
- viability, T/C [12]: 54.8%

Structure (SMILES): CC1COCCN1c1cc(C2(O)CC3CCC(C2)O3)c2cnn(-c3ccn[nH]3)c2n1 (centres undefined) + Cc1[nH]c2ccc(F)cc2c1-c1nc2c3cccnc3c3ncccc3c2[nH]1
- IC50 (second compound 0.0316 µM): 230 nM
- IC50 (second compound 0.1 µM): 209 nM
- IC50 (second compound 0.316 µM): 179 nM
- IC50 (second compound 1 µM): 182 nM
- IC50 (second compound 3.16 µM): 139 nM
- IC50 (second compound 10 µM): 61.1 nM
- viability, T/C [1]: 75.8%
- viability, T/C (second compound 0.0316 µM, first compound 0.1 µM): 57.4%
- viability, T/C [2]: 51.6%
- viability, T/C (second compound 0.0316 µM, first compound 1 µM): 27%
- viability, T/C (second compound 0.0316 µM, first compound 3.16 µM): 24.5%
- viability, T/C (second compound 0.0316 µM, first compound 10 µM): 19.8%
- viability, T/C [3]: 65.6%
- viability, T/C (second compound 0.1 µM, first compound 0.1 µM): 82.1%
- viability, T/C [4]: 36.4%
- viability, T/C (second compound 0.1 µM, first compound 1 µM): 30.2%
- viability, T/C (second compound 0.1 µM, first compound 3.16 µM): 33.5%
- viability, T/C (second compound 0.1 µM, first compound 10 µM): 22.7%
- viability, T/C [5]: 69%
- viability, T/C (second compound 0.316 µM, first compound 0.1 µM): 54.9%
- viability, T/C [6]: 44.2%
- viability, T/C (second compound 0.316 µM, first compound 1 µM): 32.4%
- viability, T/C (second compound 0.316 µM, first compound 3.16 µM): 32.9%
- viability, T/C (second compound 0.316 µM, first compound 10 µM): 19.1%
- viability, T/C [7]: 77.3%
- viability, T/C (second compound 1 µM, first compound 0.1 µM): 59.7%
- viability, T/C [8]: 37.2%
- viability, T/C (second compound 1 µM, first compound 1 µM): 35.2%
- viability, T/C (second compound 1 µM, first compound 3.16 µM): 32.4%
- viability, T/C (second compound 1 µM, first compound 10 µM): 18.1%
- viability, T/C [9]: 53.8%
- viability, T/C (second compound 3.16 µM, first compound 0.1 µM): 63.4%
- viability, T/C [10]: 28.4%
- viability, T/C (second compound 3.16 µM, first compound 1 µM): 30.5%
- viability, T/C (second compound 3.16 µM, first compound 3.16 µM): 28.7%
- viability, T/C (second compound 3.16 µM, first compound 10 µM): 13.2%
- viability, T/C [11]: 55.3%
- viability, T/C (second compound 10 µM, first compound 0.1 µM): 50.9%
- viability, T/C [12]: 26.2%
- viability, T/C (second compound 10 µM, first compound 1 µM): 28.4%
- viability, T/C (second compound 10 µM, first compound 3.16 µM): 22.9%
- viability, T/C (second compound 10 µM, first compound 10 µM): 9.97%
